Values joined by “and” are separate entries in the source; they are usually repeats but may differ in a detail not shown here. Identical values can stand only once.
Columns and labels:
Format in all cases: cell-based, human
[1] = test system: CD4+ T cells; test: Tetramer-guided epitope mapping (TGEM): pMHCII tetramer staining of PBMC cultures stimulated with RV peptides; conditions: one value per subject
Excerpt: (§1) Peptide libraries consisting of 20mers with a 12 amino acid overlap were generated to span the VP1, VP2 and VP4 protein sequences of RV-A16, and VP1 and VP2 protein sequences of RV-A39 (UniprotKB accession # Q82122, Q5XLP5). […] Biologically relevant pMHCII complexes were identified by tetramer-guided epitope mapping (TGEM). This involved 2 steps: First, PBMC cultures established from subjects with known HLA-DR types were stimulated with RV peptide pools derived from VP1, VP2, or VP4, and then stained with pMHCII tetramer pools composed of HLA-DR molecules corresponding to those expressed in the test subject; Second, positive signals were de-convoluted by repeating and staining with single-peptide tetramers. Tetramers that gave strong positive signals (˜1% of total CD4+ T cells) in the single peptide-tetramer screen in more than one subject, were then re-tested for their ability to detect RV-specific CD4+ T cells in non-stimulated PBMCs (denoted as ex vivo analysis) in multiple subjects.
(§2) All experiments were performed in subjects expressing HLA-DR molecules corresponding to the selected tetramer. Precursor frequencies of circulating tetramer+ cells were then calculated by established methods. Tetramer+ cells were phenotyped for surface markers by staining PBMCs with PE-conjugated tetramers, labeling with anti-PE magnetic beads, enriching with an AutoMACS separator (Miltenyi Biotec, Auburn, Calif., USA), and then counterstaining for surface markers. A tetramer displaying an irrelevant peptide, GAD555-567, was used as a staining control. For simplicity, identified RV-A16 peptide epitopes were given a numerical designation.

[2] = test system: RV-specific CD4+ T cells; test: Direct ex vivo pMHCII tetramer staining of non-stimulated PBMCs; set-up: key to Validated: Y means validated; conditions: for Ex Vivo Frequency (# per 10^6 CD4): directly ex vivo, without culture, one value per subject
Excerpt: as §1, §2

[3] = test system: RV-specific CD4+ T cells; test: Assay to assess T-cell cross-reactivity (14-day peptide stimulation of PBMCs, tetramer and cytokine staining); conditions: PBMCs from HLA-DR*0401+ subjects stimulated 14 days
Procedure: RV-specific CD4+ T cells were expanded in vitro using established methods. Briefly, PBMCs from HLA-DRB 1*0401+ subjects were stimulated with RV-A39 VP2169-188, or else unstimulated, for 14 days. Supplemental IL-2 (10 U/ml) was given days 7-14. Cells were then stained with RV tetramers and re-stimulated with PMA and ionomycin in the presence of Brefeldin A before staining for intracellular cytokines. Cells were analyzed on a BD LSR Fortessa (UVA Flow Cytometry Core Facility) and data analysis was performed using FlowJo version 9.3.3 (Tree Star Inc., Ashland, Oreg.). Analysis and presentation of distributions was performed using SPICE version 5.3, downloaded from a National Institutes of Health website.

[4] = HLA allele DRB5 tetramer, peptide-stimulated PBMC cultures
[5] = HLA allele 1*0101 tetramer, tetramer-positive CD4+ T cells in peptide-stimulated PBMC cultures
[6] = HLA allele 1*1101 tetramer, peptide-stimulated PBMC cultures
[7] = HLA allele 1*1501 tetramer, peptide-stimulated PBMC cultures
[8] = HLA allele 1*0701 tetramer, peptide-stimulated PBMC cultures
[9] = HLA allele 1*0101 tetramer, reliable ex vivo signal (tetramer+ cells ≥2 per million CD4+ T cells in ≥3 subjects)
[10] = HLA allele 1*0701 tetramer, reliable ex vivo signal
[11] = HLA allele 1*0404 tetramer, peptide-stimulated PBMC cultures

Sequence: QSGTNASVFWQHGQPFPRFS [VP1P21]
- In Vitro Frequency (% CD4) [1, 4]: 3.91 % CD4 and 0.95 % CD4
- Ex Vivo Frequency (# per 10^6 CD4) ([2]; HLA allele DRB5 tetramer): 11 # per 10^6 CD4 and 28 # per 10^6 CD4 and 20 # per 10^6 CD4
- Validated ([2]; HLA allele DRB5 tetramer, reliable ex vivo signal): Y

Sequence: GIFGENMFYHFLGRSGYTVH [VP2P12]
- In Vitro Frequency (% CD4) [1, 5]: 0.63 % CD4 and 0 % CD4 and 1.23 % CD4
- In Vitro Frequency (% CD4) [1, 6]: 1.55 % CD4 and 0 % CD4 and 0.38 % CD4

Sequence: SDRIIQITRGDSTITSQDVA [VP2P2]
- In Vitro Frequency (% CD4) [1, 6]: 2.18 % CD4 and 1.22 % CD4 and 2.28 % CD4
- Ex Vivo Frequency (# per 10^6 CD4) ([2]; HLA allele 1*1101 tetramer): 8 # per 10^6 CD4 and 11 # per 10^6 CD4 and 15 # per 10^6 CD4
- Validated ([2]; HLA allele 1*1101 tetramer, reliable ex vivo signal): Y

Sequence: LLGNLLIFPHQFINLRSNNS [VP2P23]
- In Vitro Frequency (% CD4) [1, 5]: 1.6 % CD4 and 3.19 % CD4 and 1.58 % CD4

Sequence: ISNIVPITVSISPMCAEFSG [VP2P30]
- In Vitro Frequency (% CD4) [1, 7]: 0.46 % CD4 and 0 % CD4

Sequence: PRFSLPFLSIASAYYMFYDG [VP1P23]
- In Vitro Frequency (% CD4) [1, 5]: 8.37 % CD4 and 0.35 % CD4 and 2.37 % CD4
- In Vitro Frequency (% CD4) [1, 8]: 1.84 % CD4 and 0.74 % CD4
- In Vitro Frequency (% CD4) [1, 7]: 0.28 % CD4 and 0.78 % CD4 and 0 % CD4
- In Vitro Frequency (% CD4) [1, 4]: 2.03 % CD4 and 2.90 % CD4
- Ex Vivo Frequency (# per 10^6 CD4) ([2]; HLA allele 1*0101 tetramer): 3 # per 10^6 CD4 and 8 # per 10^6 CD4 and 13 # per 10^6 CD4 and 2 # per 10^6 CD4
- Validated [2, 9]: Y
- Ex Vivo Frequency (# per 10^6 CD4) ([2]; HLA allele 1*0701 tetramer): 3 # per 10^6 CD4 and 8 # per 10^6 CD4 and 13 # per 10^6 CD4 and 2 # per 10^6 CD4
- Validated [2, 10]: Y
- Ex Vivo Frequency (# per 10^6 CD4) ([2]; HLA allele DRB5 tetramer): 11 # per 10^6 CD4

Sequence: ASKFHQGTLLVVMIPEHQLA [VP2P15]
- In Vitro Frequency (% CD4) [1, 11]: 0.98 % CD4 and 0.81 % CD4
- In Vitro Frequency (% CD4) [1, 7]: 0.55 % CD4 and 0.53 % CD4

Sequence: TSSNRFYTLDSKMWNSTSKG [VP2P8]
- In Vitro Frequency (% CD4) [1, 11]: 0.77 % CD4 and 1.82 % CD4
- In Vitro Frequency (% CD4) [1, 6]: 0 % CD4 (2×) and 0.26 % CD4
- Ex Vivo Frequency (# per 10^6 CD4) ([2]; HLA allele 1*0404 tetramer): 2 # per 10^6 CD4

Sequence: TTRNDYAWQSGTNASVFWQH [VP1P20]
- In Vitro Frequency (% CD4) [1, 5]: 18.7 % CD4 and 0 % CD4 (2×)

Sequence: LLVVMIPEHQLATVNKGNVN [VP2P16]
- In Vitro Frequency (% CD4) [1, 7]: 0 % CD4 and 3 % CD4

Sequence: PHQFINLRSNNSATLIVPYV [VP2P24]
- In Vitro Frequency (% CD4) [1, 5]: 2.82 % CD4 and 3.17 % CD4 and 11.3 % CD4
- In Vitro Frequency (% CD4) [1, 4]: 0 % CD4 (2×) and 0.67 % CD4
- Ex Vivo Frequency (# per 10^6 CD4) ([2]; HLA allele 1*0101 tetramer): 17 # per 10^6 CD4 and 148 # per 10^6 CD4 and 26 # per 10^6 CD4
- Validated [2, 9]: Y

Sequence: LDSKMWNSTSKGWWWKLPDA [VP2P9]
- In Vitro Frequency (% CD4) [1, 6]: 0.22 % CD4 and 0 % CD4 (2×)

Sequence: AAKDGHIGHIVMQYMYVPPG [VP1P17]
- In Vitro Frequency (% CD4) [1, 11]: 2.00 % CD4 and 2.99 % CD4 and 2.60 % CD4
- Ex Vivo Frequency (# per 10^6 CD4) ([2]; HLA allele 1*0404 tetramer): 112 # per 10^6 CD4

Sequence: VPYVNAVPMDSMVRHNNWSL [VP2P26]
- In Vitro Frequency (% CD4) [1, 8]: 1.57 % CD4 and 0.84 % CD4
- Ex Vivo Frequency (# per 10^6 CD4) ([2]; HLA allele 1*0701 tetramer): 4 # per 10^6 CD4 and 16 # per 10^6 CD4 and 14 # per 10^6 CD4 and 5 # per 10^6 CD4
- Validated [2, 10]: Y

Sequence: SDDNWLNFDGTLLGNLLIFP [RV-A39 VP2169-188]
- cytokine profile of expanded RV-specific T cells ([3]; PMA/ionomycin re-stimulation): a major IFN-γ+IL-4neg population, and minor populations expressing IL-17A and IL-21
- expansion of tetramer-positive RV-specific CD4+ T cells after peptide stimulation ([3]; RV-A16 and RV-A39 VP2 tetramers): induced expansion of both RV-A16- and RV-A39-specific T-cells

— patent US10363299B2, “Compositions and methods for preventing and treating rhinovirus infections” (priority 2015, dated 2019)
